Reference: patent US20230085307A1, “PYRIDAZINONE COMPOUND AND HERBICIDE” (NISSAN CHEMICAL CORPORATION, priority 2019, published 2023)

Experiments:
[1] = system: late watergrass; assay: Test Example 1: herbicidal activity, application before weed generation under submerged conditions (Table 16, symbol A); type: in vivo, late watergrass (Echinochloa oryzicola); settings: 320 g/ha applied herbicide
How it was run: (§1)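 Submerged Wagner pots (alluvial soil, 4 cm water) sown with weed seeds and planted with 2.5-leaf rice seedlings; emulsifiable concentrate diluted in water applied to water surface on sowing day. Held in greenhouse at 25-30 °C; injury scored 0-5 by herbicidal rate after three weeks.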

[2] = system: Japanese bulrush; assay: Test Example 1: herbicidal activity, application before weed generation under submerged conditions (Table 16, symbol B); type: in vivo, Japanese bulrush (Schoenoplectus juncoides); settings: 320 g/ha applied herbicide
How it was run: as §1

[3] = system: oval-leafed pondweed; assay: Test Example 1: herbicidal activity, application before weed generation under submerged conditions (Table 16, symbol C); type: in vivo, oval-leafed pondweed (Monochoria vaginalis); settings: 320 g/ha applied herbicide
How it was run: as §1

[4] = system: barnyard grass; assay: Test Example 3: herbicidal effect by foliage application, Wagner pot (Table 18, symbol H); type: in vivo, barnyard grass (Echinochloa crus-galli); settings: amount of applied herbicide 320 g/ha
How it was run: (§2)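 Plants were sown in alluvial soil held under 0.1–0.5 cm standing water and grown 14 days in a greenhouse at 25–30 °C. An emulsifiable formulation, water-diluted to the set dose, was then sprayed onto the foliage, and effects were scored three weeks later using previously defined criteria.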

[5] = system: Chinese sprangletop; assay: Test Example 3: herbicidal effect by foliage application, Wagner pot (Table 18, symbol D); type: in vivo, chinese sprangletop (Leptochloa chinensis); settings: amount of applied herbicide 320 g/ha
How it was run: as §2

[6] = system: rice flat sedge; assay: Test Example 3: herbicidal effect by foliage application, Wagner pot (Table 18, symbol E); type: in vivo, rice flat sedge (Cyperus iria); settings: amount of applied herbicide 320 g/ha
How it was run: as §2

[7] = system: southern crabgrass; assay: Test Example 4: herbicidal effect by soil treatment (Table 19, symbol F); type: in vivo, southern crabgrass (Digitaria ciliaris); settings: amount of applied herbicide 320 g/ha
How it was run: (§3)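 Herbicidal effect was rated 3 weeks after treatment, using the scoring criteria of an earlier test. The compound, formulated as an emulsion and diluted in water to a set herbicide amount, had been sprayed uniformly on soil over freshly sown seeds. Growth took place in a greenhouse at 25° C. to 30° C.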

[8] = system: green foxtail; assay: Test Example 4: herbicidal effect by soil treatment (Table 19, symbol G); type: in vivo, green foxtail (Setaria viridis); settings: amount of applied herbicide 320 g/ha
How it was run: as §3

[9] = system: barnyard grass; assay: Test Example 4: herbicidal effect by soil treatment (Table 19, symbol H); type: in vivo, barnyard grass (Echinochloa crus-galli); settings: amount of applied herbicide 320 g/ha
How it was run: as §3

[10] = system: wild oat; assay: Test Example 4: herbicidal effect by soil treatment (Table 19, symbol I); type: in vivo, wild oat (Avena fatua); settings: amount of applied herbicide 320 g/ha
How it was run: as §3

[11] = system: blackgrass; assay: Test Example 4: herbicidal effect by soil treatment (Table 19, symbol J); type: in vivo, blackgrass (Alopecurus myosuroides); settings: amount of applied herbicide 320 g/ha
How it was run: as §3

[12] = system: Italian ryegrass; assay: Test Example 4: herbicidal effect by soil treatment (Table 19, symbol K); type: in vivo, Italian ryegrass (Lolium multiflorum); settings: amount of applied herbicide 320 g/ha
How it was run: as §3

[13] = system: windgrass; assay: Test Example 4: herbicidal effect by soil treatment (Table 19, symbol L); type: in vivo, windgrass (Apera spica-venti); settings: amount of applied herbicide 320 g/ha
How it was run: as §3

[14] = system: velvetleaf; assay: Test Example 4: herbicidal effect by soil treatment (Table 19, symbol M); type: in vivo, velvetleaf (Abutilon theophrasti); settings: amount of applied herbicide 320 g/ha
How it was run: as §3

[15] = system: redroot pigweed; assay: Test Example 4: herbicidal effect by soil treatment (Table 19, symbol N); type: in vivo, redroot pigweed (Amaranthus retroflexus); settings: amount of applied herbicide 320 g/ha
How it was run: as §3

[16] = system: lambsquarters; assay: Test Example 4: herbicidal effect by soil treatment (Table 19, symbol O); type: in vivo, lambsquarters (Chenopodium album); settings: amount of applied herbicide 320 g/ha
How it was run: as §3

[17] = system: chickweed; assay: Test Example 4: herbicidal effect by soil treatment (Table 19, symbol P); type: in vivo, common chickweed (Stellaria media); settings: amount of applied herbicide 320 g/ha
How it was run: as §3

[18] = system: persian speedwell; assay: Test Example 4: herbicidal effect by soil treatment (Table 19, symbol R); type: in vivo, Persian speedwell (Veronica persica); settings: amount of applied herbicide 320 g/ha
How it was run: as §3

[19] = system: southern crabgrass; assay: Test Example 5: herbicidal effect by foliage application, plastic box (Table 20, symbol F); type: in vivo, southern crabgrass (Digitaria ciliaris); settings: foliage application, evaluated three weeks after application
How it was run: (§4)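 Foliar spray test: emulsion formulation diluted in water to a set application rate, sprayed onto 14-day-old plants raised in diluvial soil at 25° C to 30° C under glass. Both herbicidal effect and crop effect rated visually three weeks later.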

[20] = system: green foxtail; assay: Test Example 5: herbicidal effect by foliage application, plastic box (Table 20, symbol G); type: in vivo, green foxtail (Setaria viridis); settings: foliage application, evaluated three weeks after application
How it was run: as §4

[21] = system: barnyard grass; assay: Test Example 5: herbicidal effect by foliage application, plastic box (Table 20, symbol H); type: in vivo, barnyard grass (Echinochloa crus-galli); settings: foliage application, evaluated three weeks after application
How it was run: as §4

[22] = system: wild oat; assay: Test Example 5: herbicidal effect by foliage application, plastic box (Table 20, symbol I); type: in vivo, wild oat (Avena fatua); settings: foliage application, evaluated three weeks after application
How it was run: as §4

[23] = system: blackgrass; assay: Test Example 5: herbicidal effect by foliage application, plastic box (Table 20, symbol J); type: in vivo, blackgrass (Alopecurus myosuroides); settings: foliage application, evaluated three weeks after application
How it was run: as §4

[24] = system: Italian ryegrass; assay: Test Example 5: herbicidal effect by foliage application, plastic box (Table 20, symbol K); type: in vivo, Italian ryegrass (Lolium multiflorum); settings: foliage application, evaluated three weeks after application
How it was run: as §4

[25] = system: windgrass; assay: Test Example 5: herbicidal effect by foliage application, plastic box (Table 20, symbol L); type: in vivo, windgrass (Apera spica-venti); settings: foliage application, evaluated three weeks after application
How it was run: as §4

[26] = system: velvetleaf; assay: Test Example 5: herbicidal effect by foliage application, plastic box (Table 20, symbol M); type: in vivo, velvetleaf (Abutilon theophrasti); settings: foliage application, evaluated three weeks after application
How it was run: as §4

[27] = system: redroot pigweed; assay: Test Example 5: herbicidal effect by foliage application, plastic box (Table 20, symbol N); type: in vivo, redroot pigweed (Amaranthus retroflexus); settings: foliage application, evaluated three weeks after application
How it was run: as §4

[28] = system: lambsquarters; assay: Test Example 5: herbicidal effect by foliage application, plastic box (Table 20, symbol O); type: in vivo, lambsquarters (Chenopodium album); settings: foliage application, evaluated three weeks after application
How it was run: as §4

[29] = system: chickweed; assay: Test Example 5: herbicidal effect by foliage application, plastic box (Table 20, symbol P); type: in vivo, common chickweed (Stellaria media); settings: foliage application, evaluated three weeks after application
How it was run: as §4

[30] = system: persian speedwell; assay: Test Example 5: herbicidal effect by foliage application, plastic box (Table 20, symbol R); type: in vivo, Persian speedwell (Veronica persica); settings: foliage application, evaluated three weeks after application
How it was run: as §4

Compound | Herbicidal effect on A: late watergrass (grade 0-5) [1] | Herbicidal effect on B: Japanese bulrush (grade 0-5) [2] | Herbicidal effect on C: oval-leafed pondweed (grade 0-5) [3] | herbicidal effect on H: barnyard grass [4] | herbicidal effect on D: Chinese sprangletop [5] | herbicidal effect on E: rice flat sedge [6] | herbicidal effect on F: southern crabgrass [7] | herbicidal effect on G: green foxtail [8] | herbicidal effect on H: barnyard grass [9] | herbicidal effect on I: wild oat [10] | herbicidal effect on J: blackgrass [11] | herbicidal effect on K: Italian ryegrass [12] | herbicidal effect on L: windgrass [13] | herbicidal effect on M: velvetleaf [14] | herbicidal effect on N: redroot pigweed [15] | herbicidal effect on O: lambsquarters [16] | herbicidal effect on P: chickweed [17] | herbicidal effect on R: persian speedwell [18] | also measured
CCCSc1cccc(-c2sc3ccc(F)cc3c2-c2c(O)c(C)nn(C)c2=O)c1 [2-246] | 2 (Herbicidal rate of 20% or more and less than 40%) | 0 (Herbicidal rate of 5% or less (almost no effect)) | 0 (Herbicidal rate of 5% or less (almost no effect)) | 3 (Herbicidal rate of 40% or more and less than 70%) | 0 (Herbicidal rate of 5% or less (almost no effect)) | 3 (Herbicidal rate of 40% or more and less than 70%) | 0 (Herbicidal rate of 5% or less (almost no effect)) | 0 (Herbicidal rate of 5% or less (almost no effect)) | 0 (Herbicidal rate of 5% or less (almost no effect)) | 0 (Herbicidal rate of 5% or less (almost no effect)) | 0 (Herbicidal rate of 5% or less (almost no effect)) | 0 (Herbicidal rate of 5% or less (almost no effect)) | 0 (Herbicidal rate of 5% or less (almost no effect)) | 0 (Herbicidal rate of 5% or less (almost no effect)) | 0 (Herbicidal rate of 5% or less (almost no effect)) | 0 (Herbicidal rate of 5% or less (almost no effect)) | 3 (Herbicidal rate of 40% or more and less than 70%) | 5 (Herbicidal rate of 90% or more (almost completely withered)) | herbicidal effect on F: southern crabgrass (criteria 0-5) ([19]; 320 g/ha): 0 (Herbicidal rate of 5% or less (almost no effect)); herbicidal effect on G: green foxtail (criteria 0-5) ([20]; 320 g/ha): 0 (Herbicidal rate of 5% or less (almost no effect)); herbicidal effect on H: barnyard grass (criteria 0-5) ([21]; 320 g/ha): 0 (Herbicidal rate of 5% or less (almost no effect)); herbicidal effect on I: wild oat (criteria 0-5) ([22]; 320 g/ha): 4 (Herbicidal rate of 70% or more and less than 90%); herbicidal effect on J: blackgrass (criteria 0-5) ([23]; 320 g/ha): 1 (Herbicidal rate of 5% or more and less than 20%); herbicidal effect on K: Italian ryegrass (criteria 0-5) ([24]; 320 g/ha): 2 (Herbicidal rate of 20% or more and less than 40%); herbicidal effect on L: windgrass (criteria 0-5) ([25]; 320 g/ha): 3 (Herbicidal rate of 40% or more and less than 70%); herbicidal effect on M: velvetleaf (criteria 0-5) ([26]; 320 g/ha): 3 (Herbicidal rate of 40% or more and less than 70%); herbicidal effect on N: redroot pigweed (criteria 0-5) ([27]; 320 g/ha): 3 (Herbicidal rate of 40% or more and less than 70%); herbicidal effect on O: lambsquarters (criteria 0-5) ([28]; 320 g/ha): 0 (Herbicidal rate of 5% or less (almost no effect)); herbicidal effect on P: chickweed (criteria 0-5) ([29]; 320 g/ha): 5 (Herbicidal rate of 90% or more (almost completely withered)); herbicidal effect on R: persian speedwell (criteria 0-5) ([30]; 320 g/ha): 5 (Herbicidal rate of 90% or more (almost completely withered))
CC(=O)COc1cccc(-c2sc3ccc(F)cc3c2-c2c(O)c(C)nn(C)c2=O)c1 [2-275] | 3 (Herbicidal rate of 40% or more and less than 70%) | 3 (Herbicidal rate of 40% or more and less than 70%) | 3 (Herbicidal rate of 40% or more and less than 70%) | 3 (Herbicidal rate of 40% or more and less than 70%) | 0 (Herbicidal rate of 5% or less (almost no effect)) | 0 (Herbicidal rate of 5% or less (almost no effect)) | 5 (Herbicidal rate of 90% or more (almost completely withered)) | 4 (Herbicidal rate of 70% or more and less than 90%) | 3 (Herbicidal rate of 40% or more and less than 70%) | 0 (Herbicidal rate of 5% or less (almost no effect)) | 0 (Herbicidal rate of 5% or less (almost no effect)) | 0 (Herbicidal rate of 5% or less (almost no effect)) | 0 (Herbicidal rate of 5% or less (almost no effect)) | 1 (Herbicidal rate of 5% or more and less than 20%) | 4 (Herbicidal rate of 70% or more and less than 90%) | 2 (Herbicidal rate of 20% or more and less than 40%) | 0 (Herbicidal rate of 5% or less (almost no effect)) | 3 (Herbicidal rate of 40% or more and less than 70%) | F: southern crabgrass, herbicidal effect (criteria 0-5) ([19]; AAH 320 g/ha): 5 (Herbicidal rate of 90% or more (almost completely withered)); G: green foxtail, herbicidal effect (criteria 0-5) ([20]; AAH 320 g/ha): 4 (Herbicidal rate of 70% or more and less than 90%); H: barnyard grass, herbicidal effect (criteria 0-5) ([21]; AAH 320 g/ha): 3 (Herbicidal rate of 40% or more and less than 70%); I: wild oat, herbicidal effect (criteria 0-5) ([22]; AAH 320 g/ha): 0 (Herbicidal rate of 5% or less (almost no effect)); J: blackgrass, herbicidal effect (criteria 0-5) ([23]; AAH 320 g/ha): 0 (Herbicidal rate of 5% or less (almost no effect)); K: Italian ryegrass, herbicidal effect (criteria 0-5) ([24]; AAH 320 g/ha): 0 (Herbicidal rate of 5% or less (almost no effect)); L: windgrass, herbicidal effect (criteria 0-5) ([25]; AAH 320 g/ha): 0 (Herbicidal rate of 5% or less (almost no effect)); M: velvetleaf, herbicidal effect (criteria 0-5) ([26]; AAH 320 g/ha): 3 (Herbicidal rate of 40% or more and less than 70%); N: redroot pigweed, herbicidal effect (criteria 0-5) ([27]; AAH 320 g/ha): 4 (Herbicidal rate of 70% or more and less than 90%); O: lambsquarters, herbicidal effect (criteria 0-5) ([28]; AAH 320 g/ha): 2 (Herbicidal rate of 20% or more and less than 40%); P: chickweed, herbicidal effect (criteria 0-5) ([29]; AAH 320 g/ha): 5 (Herbicidal rate of 90% or more (almost completely withered)); R: persian speedwell, herbicidal effect (criteria 0-5) ([30]; AAH 320 g/ha): 5 (Herbicidal rate of 90% or more (almost completely withered))
